Where two headings read alike, the source gives them in different places.
What was measured:
hDHFR = hDHFR (Homo sapiens (Human), UniProt P00374); assay: DHFR inhibition assay (diaphorase/resazurin coupled, fluorescence of resorufin), human DHFR; format: biochemical
T. cruzi DHFR (tcDHFR) = T. cruzi DHFR (tcDHFR) (Trypanosoma cruzi, UniProt Q27793); assay: DHFR inhibition assay (diaphorase/resazurin coupled), T. cruzi DHFR; format: biochemical; conditions: for tcDHFR pIC50-DHFR primary assay: Table 12, T. cruzi DHFR; for Average DHFR selectivity (h/tc): hDHFR IC50/tcDHFR IC50
T. brucei DHFR (tbDHFR) = T. brucei DHFR (tbDHFR) (Trypanosoma brucei brucei, UniProt Q27783); assay: DHFR inhibition assay (diaphorase/resazurin coupled), T. brucei DHFR; format: biochemical; conditions: for tbDHFR pIC50-DHFR primary assay: Table 13, T. brucei DHFR; for Average DHFR selectivity (h/tb)*-DHFR IC50: hDHFR IC50/tbDHFR IC50
L. major DHFR (1mDHFR) = L. major DHFR (1mDHFR) (Leishmania major, UniProt P07382); format: biochemical; conditions: for Average DHFR selectivity (h/lm)*-DHFR IC50: hDHFR IC50/L. major DHFR IC50
[1] = target: P. falciparum DHFR (pfDHFR) (Plasmodium falciparum (isolate K1 / Thailand), UniProt P13922); assay: DHFR inhibition assay (diaphorase/resazurin coupled), P. falciparum DHFR; format: biochemical; conditions: for pfDHFR pIC50-DHFR primary assay: Table 15, P. falciparum DHFR
T. gondii DHFR (tgDHFR) = T. gondii DHFR (tgDHFR) (Toxoplasma gondii, UniProt Q07422); conditions: for Average DHFR selectivity (h/tg): hDHFR IC50/tgDHFR IC50

hDHFR, sequence (P00374 whole entry): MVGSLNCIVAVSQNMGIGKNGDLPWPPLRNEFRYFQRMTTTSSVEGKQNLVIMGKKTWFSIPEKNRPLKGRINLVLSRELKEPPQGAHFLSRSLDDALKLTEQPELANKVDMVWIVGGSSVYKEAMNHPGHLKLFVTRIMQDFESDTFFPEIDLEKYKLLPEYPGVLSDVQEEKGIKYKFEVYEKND

With `Nc1ncc(N2CCN(c3ccccc3)CC2)c(N)n1` [Compound 4, 5-(4-phenylpiperazin-1-yl)pyrimidine-2,4-diamine] the “hDHFR pIC50-DHFR primary assay” value (hDHFR; Table 11) was 4.90, the “hDHFR pIC50-DHFR primary assay” value (hDHFR; Table 12) was 4.90 and the “hDHFR pIC50-DHFR primary assay” value (hDHFR; Table 13) was 4.90. For the same molecule, the “hDHFR pIC50-DHFR primary assay” value (hDHFR; Table 14) was 4.90, the “hDHFR pIC50-DHFR primary assay” value (hDHFR; Table 15) was 4.90 and the “tcDHFR pIC50-DHFR primary assay” value (T. cruzi DHFR (tcDHFR)) was 7.04. For the same molecule, the “tbDHFR pIC50-DHFR primary assay” value (T. brucei DHFR (tbDHFR)) was 7.50, the “mDHFR pIC50-DHFR primary assay” value (L. major DHFR (1mDHFR); Table 14, L. major DHFR) was 6.30 and the “pfDHFR pIC50-DHFR primary assay” value [1] was 8.72. For the same molecule, the “tgDHFR pIC50-DHFR primary assay” value (T. gondii DHFR (tgDHFR)) was 6.68.
With `Nc1ncc(N2CCN(c3ccc(-c4ccccc4)cc3)CC2)c(N)n1` [Compound 12, 5-(4-([1,1′-biphenyl]-4-yl)piperazin-1-yl)pyrimidine-2,4-diamine] the “Average DHFR selectivity (h/lm)*-DHFR IC50” value (L. major DHFR (1mDHFR)) was 29.
In the case of `Nc1ncc(N2CCN(c3cnc4ccccc4c3)CC2)c(N)n1` [Compound 19, 5-(4-(quinolin-3-yl)piperazin-1-yl)pyrimidine-2,4-diamine], the “Average DHFR selectivity (h/lm)*-DHFR IC50” value (L. major DHFR (1mDHFR)) is reported as 35.
With `CCCc1nc(N)nc(N)c1N1CCN(c2ccccc2)CC1` [Compound 49, 5-(4-phenylpiperazin-1-yl)-6-propylpyrimidine-2,4-diamine] the “pfDHFR pIC50-DHFR primary assay” value [1] was 7.85, the “Average DHFR selectivity (h/pf)*-DHFR IC50” value ([1]; hDHFR IC50/pfDHFR IC50) was 806 and the “Average DHFR selectivity (h/tg)” value (T. gondii DHFR (tgDHFR)) was 501.19.
In the case of `COc1ncc(-c2cccc(N3CCN(c4cnc(N)nc4N)CC3)c2)cn1` [Compound 78, 5-(4-(3-(2-methoxypyrimidin-5-yl)phenyl)piperazin-1-yl)pyrimidine-2,4-diamine], the “hDHFR pIC50-DHFR primary assay” value (hDHFR; Table 11) is reported as 5.92, the “hDHFR pIC50-DHFR primary assay” value (hDHFR; Table 13) is reported as 6.05 and the “hDHFR pIC50-DHFR primary assay” value (hDHFR; Table 15) is reported as 6.04. The “tbDHFR pIC50-DHFR primary assay” value (T. brucei DHFR (tbDHFR)) was 8.68, the “pfDHFR pIC50-DHFR primary assay” value [1] was 9.15 and the “tgDHFR pIC50-DHFR primary assay” value (T. gondii DHFR (tgDHFR); Table 11, T. gondii DHFR) was 8.49.
With `Nc1ncc(N2CCN(c3cccc(-c4cnc(C5CC5)nc4)c3)CC2)c(N)n1` [Compound 86, 5-(4-(3-(2-cyclopropylpyrimidin-5-yl)phenyl)piperazin-1-yl)pyrimidine-2,4-diamine] the “Average DHFR selectivity (h/tb)*-DHFR IC50” value (T. brucei DHFR (tbDHFR)) was 330.
`Nc1ncc(N2CCN(c3cccc(-c4ccnc(F)c4)c3)CC2)c(N)n1` [Compound 90, 5-(4-(3-(2-fluoropyridin-4-yl)phenyl)piperazin-1-yl)pyrimidine-2,4-diamine] was tested, and the “Average DHFR selectivity (h/lm)*-DHFR IC50” value (L. major DHFR (1mDHFR)) was 27.
`Cc1ncc(-c2cccc(C3CCN(c4cnc(N)nc4N)CC3)c2)cn1` [Compound 94, 5-(4-(3-(2-methylpyrimidin-5-yl)phenyl)piperidin-1-yl)pyrimidine-2,4-diamine] was tested, and the “hDHFR pIC50-DHFR primary assay” value (hDHFR; Table 13) was 6.49, the “tbDHFR pIC50-DHFR primary assay” value (T. brucei DHFR (tbDHFR)) was 9.05 and the “Average DHFR selectivity (h/tb)*-DHFR IC50” value (T. brucei DHFR (tbDHFR)) was 357.
In the case of `CCc1ncc(-c2cccc(N3CCN(c4cnc(N)nc4N)CC3)c2)cn1` [Compound 95, 5-(4-(3-(2-ethylpyrimidin-5-yl)phenyl)piperazin-1-yl)pyrimidine-2,4-diamine], the “Average DHFR selectivity (h/tb)*-DHFR IC50” value (T. brucei DHFR (tbDHFR)) is reported as 375 and the “Average DHFR selectivity (h/tg)” value (T. gondii DHFR (tgDHFR)) is reported as 218.78.
For `Nc1ncc(N2CCN(c3cccc(-c4cnc(N5CCC5)nc4)c3)CC2)c(N)n1` [Compound 98, 5-(4-(3-(2-(azetidin-1-yl)pyrimidin-5-yl)phenyl)piperazin-1-yl)pyrimidine-2,4-diamine], the “Average DHFR selectivity (h/lm)*-DHFR IC50” value (L. major DHFR (1mDHFR)) was 48 and the “Average DHFR selectivity (h/tg)” value (T. gondii DHFR (tgDHFR)) was 130.84.
`Nc1ncc(N2CCN(c3cccc(-c4cnc(Cl)nc4)c3)CC2)c(N)n1` [Compound 100, 5-(4-(3-(2-chloropyrimidin-5-yl)phenyl)piperazin-1-yl)pyrimidine-2,4-diamine] was tested, and the “Average DHFR selectivity (h/tb)*-DHFR IC50” value (T. brucei DHFR (tbDHFR)) was 522 and the “Average DHFR selectivity (h/tg)” value (T. gondii DHFR (tgDHFR)) was 197.28.
With `Nc1ncc(N2CCN(c3cccc(-c4ccncn4)c3)CC2)c(N)n1` [Compound 102, 5-(4-(3-(pyrimidin-4-yl)phenyl)piperazin-1-yl)pyrimidine-2,4-diamine] the “Average DHFR selectivity (h/tc)” value (T. cruzi DHFR (tcDHFR)) was 103.
`Nc1ncc(N2CCN(c3cccc(-c4ncccn4)c3)CC2)c(N)n1` [Compound 103, 5-(4-(3-(pyrimidin-2-yl)phenyl)piperazin-1-yl)pyrimidine-2,4-diamine] was tested, and the “hDHFR pIC50-DHFR primary assay” value (hDHFR; Table 11) was 5.89 and the “tgDHFR pIC50-DHFR primary assay” value (T. gondii DHFR (tgDHFR)) was 7.56.
`Nc1ncc(N2CCN(c3cccc(-c4cnccn4)c3)CC2)c(N)n1` [Compound 104, 5-(4-(3-(pyrazin-2-yl)phenyl)piperazin-1-yl)pyrimidine-2,4-diamine] was tested, and the “hDHFR pIC50-DHFR primary assay” value (hDHFR; Table 11) was 5.88 and the “tgDHFR pIC50-DHFR primary assay” value (T. gondii DHFR (tgDHFR)) was 7.99.
In the case of `Nc1ncc(N2CCN(c3cccc(-c4cccnn4)c3)CC2)c(N)n1` [Compound 107], the “Average DHFR selectivity (h/lm)*-DHFR IC50” value (L. major DHFR (1mDHFR)) is reported as 30.
In the case of `COc1ccc(N2CCN(c3cnc(N)nc3N)CC2)cc1` [Compound 114, 5-(4-(4-methoxyphenyl)piperazin-1-yl)pyrimidine-2,4-diamine], the “Average DHFR selectivity (h/tc)” value (T. cruzi DHFR (tcDHFR)) is reported as 144.
In the case of `Nc1ncc(N2CCN(c3ccc(C(F)(F)F)cc3)CC2)c(N)n1` [Compound 115, 5-(4-(4-(trifluoromethyl)phenyl)piperazin-1-yl)pyrimidine-2,4-diamine], the “Average DHFR selectivity (h/tc)” value (T. cruzi DHFR (tcDHFR)) is reported as 132.
With `Nc1ncc(N2CCN(c3ccc(F)cc3)CC2)c(N)n1` [Compound 116, 5-(4-(4-fluorophenyl)piperazin-1-yl)pyrimidine-2,4-diamine] the “Average DHFR selectivity (h/tc)” value (T. cruzi DHFR (tcDHFR)) was 100.
`CN(Cc1cnc2nc(N)nc(N)c2n1)c1ccc(C(=O)N[C@@H](CCC(=O)O)C(=O)O)cc1` [Methotrexate] was tested, and the “tcDHFR pIC50-DHFR primary assay” value (T. cruzi DHFR (tcDHFR)) was 8.96.
